Measurements from ChEMBL document CHEMBL4665886, “Assessing different thiazolidine and thiazole based compounds as antileishmanial scaffolds” (Bioorg Med Chem Lett, 2020).

Legend:
[1] = Therapeutic index, ratio of average IC50 for human MRC5 and BJ cells to IC50 for antileishmanial activity against Leishmania major; type: toxicity; conditions: MRC5 and BJ cells (average IC50) versus Leishmania major, read-out: TI
[2] = tested on: Trypanosoma brucei brucei; test: Antitrypanosomal activity against bloodstream form of Trypanosoma brucei brucei 90-13 assessed as reduction in parasite growth; type: functional, organism-based
[3] = tested on: Trypanosoma brucei gambiense; test: Antitrypanosomal activity against bloodstream form of Trypanosoma brucei gambiense Feo assessed as reduction in parasite growth; type: functional, organism-based
[4] = tested on: BJ; test: Cytotoxicity against human BJ cells after 24 hrs by redox-sensitive dye based fluorescent assay; type: cell-based
[5] = tested on: MRC5; test: Cytotoxicity against human MRC5 cells after 24 hrs by redox-sensitive dye based fluorescent assay; type: cell-based; conditions: MRC5, 24 h
[6] = tested on: Leishmania major; test: Antileishmanial activity against Leishmania major FV1 assessed as reduction in parasite growth; type: functional, organism-based

| Structure (SMILES) | selectivity ratio [1] | IC50 [2] [µM] | IC50 [3] [µM] | IC50 [4] [µM] | IC50 [5] [µM] | IC50 [6] [µM] |
| --- | --- | --- | --- | --- | --- | --- |
| C=CCN1C(=O)C(CC(=O)c2ccc(F)cc2)S/C1=N\N=C\c1ccccc1 (stereo not given) | 0.45 | > 50 | > 50 | 21.5 | 20.1 | 47.5 |
| CCC1S/C(=N\N=C\c2c(-c3ccc(Cl)cc3)[nH]c3ccccc23)NC1=O (stereo not given) | 0.36 | – | – | 7.45 | 8.8 | 22.7 |
| O=C(CC1S/C(=N\N=C\c2c(-c3ccccc3)[nH]c3ccccc23)NC1=O)c1ccccc1 (stereo not given) | > 5.47 | – | – | > 50 | > 50 | 9.14 |
| CCOC(=O)c1sc(N/N=C/c2c(-c3ccc([N+](=O)[O-])cc3)[nH]c3ccccc23)nc1C | 5.09 | – | – | 50 | 23.5 | 7.22 |
| O=C1CS/C(=N\N=C\c2c(-c3ccc(Cl)cc3)[nH]c3ccccc23)N1 | > 7.13 | – | – | > 50 | > 50 | 7.01 |
| CCC1S/C(=N\N=C\c2c(-c3ccc(Br)cc3)[nH]c3ccccc23)NC1=O (stereo not given) | 0.36 | – | – | 7.45 | 5.91 | 18.8 |
| O=C1N/C(=N/N=C/c2c(-c3ccc(Br)cc3)[nH]c3ccccc23)SC1CCO (stereo not given) | 1.75 | – | – | 29.2 | 15.9 | 12.8 |
| C=CCSc1nn2c(/C=N/N=C3/NC(=O)C(CCOC(C)=O)S3)c(-c3ccccc3)nc2s1 (stereo not given) | 2.96 | – | – | 34.9 | 23.2 | 9.81 |
| O=C(CC1S/C(=N\N=C\c2c(-c3ccccc3)[nH]c3ccccc23)NC1=O)c1ccc(F)cc1 (stereo not given) | > 6.18 | – | – | > 50 | 49.8 | 8.09 |
| CC(=O)OCCC1S/C(=N\N=C\c2c(-c3ccccc3)[nH]c3ccccc23)NC1=O (stereo not given) | 11.3 | – | – | 37.1 | 42.8 | 3.51 |
| CC1S/C(=N\N=C\c2c(-c3ccc(Br)cc3)[nH]c3ccccc23)NC1=O (stereo not given) | > 2.7 | – | – | > 50 | > 50 | 18.6 |
| C=CCSc1nn2c(C=O)c(-c3ccccc3)nc2s1 | > 4.78 | – | 2.34 | > 50 | 35.4 | 8.94 |
| O=C1N/C(=N/N=C/c2c(-c3ccc(Cl)cc3)[nH]c3ccccc23)SC1CCO (stereo not given) | 1.13 | – | – | 22.4 | 13.2 | 15.7 |
| CCC1S/C(=N\N=C\c2c(-c3ccc([N+](=O)[O-])cc3)[nH]c3ccccc23)NC1=O (stereo not given) | 1.87 | – | – | 29.8 | 25.2 | 14.7 |
| CCC1S/C(=N\N=C\c2c(-c3ccccc3)[nH]c3ccccc23)NC1=O (stereo not given) | > 44.6 | – | – | > 50 | > 50 | 1.12 |
| O=C1CS/C(=N\N=C\c2c(-c3ccccc3)[nH]c3ccccc23)N1 | > 29.1 | – | – | > 50 | > 50 | 1.73 |

| Structure (SMILES) | selectivity ratio [1] | IC50 [2] [µM] | IC50 [3] [µM] | IC50 [4] [µM] | IC50 [5] [µM] | IC50 [6] [µM] |
| --- | --- | --- | --- | --- | --- | --- |
| CC1S/C(=N\N=C\c2c(-c3ccccc3)[nH]c3ccccc23)NC1=O (stereo not given) | > 48.1 | – | – | > 50 | > 50 | 1.01 |
| CCOC(=O)c1sc(N/N=C/c2c(-c3ccc(Cl)cc3)[nH]c3ccccc23)nc1C | > 2.49 | – | – | > 50 | 25.2 | 12 |
| CCOC(=O)C(Cc1ccccc1)N1C(=O)/C(=C/Nc2ncc(Cc3ccc(Cl)cc3Cl)s2)SC1=S (stereo not given) | > 3.3 | 2.36 | 1.85 | > 50 | > 50 | 15.2 |
| C[C@@H]1CC[C@@H]2[C@@H](C1)c1sc(=O)n(CC(=O)Nc3ccccc3)c1SC2(C)C | > 5.76 | 10.2 | – | > 50 | > 50 | 8.68 |
| O=C(CC1S\C(=N/N=C\C=C\c2ccccc2)N(Cc2ccco2)C1=O)Nc1cccc(C(F)(F)F)c1 (stereo not given) | 0.75 | > 50 | > 50 | 15.6 | 12 | 18.4 |
| O=C1CS/C(=N/N=C/c2c(-c3ccc(Cl)cc3)[nH]c3ccccc23)N1Cc1ccco1 | 0.75 | – | 7.31 | 8.07 | 10.8 | 12.6 |
| C[C@@H]1CC[C@@H]2[C@@H](C1)c1sc(=O)n(CC(=O)Nc3ccc(S(N)(=O)=O)cc3)c1SC2(C)C | > 2.53 | 14.2 | – | > 50 | > 50 | 19.8 |
| C[C@@H]1CC[C@@H]2[C@@H](C1)c1sc(=O)n(CC(=O)Nc3ccccc3C(F)(F)F)c1SC2(C)C | > 2.78 | 8.5 | – | > 50 | > 50 | 18 |
| C=CCN1C(=O)C(CC(=O)c2ccc(F)cc2)S/C1=N\N=C1\CC2CCC1(C)C2(C)C (stereo not given) | > 3.28 | > 50 | > 50 | > 50 | > 50 | 15.3 |
| C[C@@H]1CC[C@@H]2[C@@H](C1)c1sc(=O)n(CCC#N)c1SC2(C)C | > 3.38 | – | – | > 50 | > 50 | 14.8 |
| CCOC(=O)C(Cc1ccccc1)N1C(=O)/C(=C/Nc2nccs2)SC1=S (stereo not given) | > 1.73 | 9.65 | 13.4 | > 50 | > 50 | 28.8 |
| CCc1nn2c(C=O)c(-c3ccc([N+](=O)[O-])cc3)nc2s1 | > 1.65 | – | – | > 50 | > 50 | 30.4 |
| C[C@@H]1CC[C@@H]2[C@@H](C1)c1sc(=O)n(CC(=O)Nc3cccc(C(F)(F)F)c3)c1SC2(C)C | > 3.47 | 2.97 | – | > 50 | > 50 | 14.4 |
| C[C@@H]1[C@H](O)[C@@H](C)/C=C/C=C/C=C/C=C/C=C/C=C/C=C/[C@H](O[C@@H]2O[C@H](C)[C@@H](O)[C@H](N)[C@@H]2O)C[C@@H]2O[C@](O)(C[C@@H](O)C[C@@H](O)[C@H](O)CC[C@@H](O)C[C@@H](O)CC(=O)O[C@H]1C)C[C@H](O)[C@H]2C(=O)O [AMPHOTERICIN B] | > 100 | – | – | > 50 | > 50 | 0.5 |
| CCCCCCCCCCCCCCCCOP(=O)([O-])OCC[N+](C)(C)C [MILTEFOSINE] | > 6.11 | – | – | > 50 | > 50 | 8.18 |
